According to ChEMBL document CHEMBL5576134, “Targeting Pancreatic Cancer with Novel Nicolaioidesin C Derivatives: Molecular Mechanism, In Vitro, and In Vivo Evaluations” (J Med Chem, 2024):
The source made the active and inactive calls. No cut-off for these calls is given here.

Experiments:
MIA PaCa-2 [1] = experiment: Preferential cytotoxicity against human MIA PaCa-2 cells in nutrient-deprived medium measured after 24 hrs by WST-8 cell counting analysis; type: functional
PANC-1 [2] = experiment: Preferential cytotoxicity against human PANC-1 cells in nutrient-deprived medium measured after 24 hrs by WST-8 cell counting analysis; type: functional
[3] = Selectivity index, ratio of IC50 for preferential cytotoxicity against human PANC-1 cells in DMEM to PC50 for preferential cytotoxicity against human PANC-1 cells in nutrient-deprived medium; type: functional
[4] = Selectivity index, ratio of IC50 for preferential cytotoxicity against human MIA PaCa-2 cells in DMEM to PC50 for preferential cytotoxicity against human MIA PaCa-2 cells in nutrient-deprived medium; type: functional
MIA PaCa-2 [5] = experiment: Preferential cytotoxicity against human MIA PaCa-2 cells in DMEM measured after 24 hrs by WST-8 cell counting analysis; type: functional, cell-based; conditions: MIA PaCa-2, 24 h
PANC-1 [6] = experiment: Preferential cytotoxicity against human PANC-1 cells in DMEM measured after 24 hrs by WST-8 cell counting analysis; type: functional, cell-based; conditions: PANC-1, 24 h
MIA PaCa-2 [7] = experiment: Antitumor activity against human MIA PaCa-2 cells xenografted in BALB/c/Nu/Nu mouse assessed as reduction in final tumor weight at 60 mg/kg, ip administered 5 times a week for 4 weeks (reference value: […]); type: functional
MIA PaCa-2 [8] = experiment: Antitumor activity against human MIA PaCa-2 cells xenografted in BALB/c/Nu/Nu mouse assessed as reduction in number of blood vessels in skin at 60 mg/kg, ip administered 5 times a week for 4 weeks; type: functional, organism-based
[9] = Toxicity in BALB/c/Nu/Nu mouse xenografted with human MIA PaCa-2 cells assessed as change in body weight at 60 mg/kg, ip administered 5 times a week for 4 weeks; type: organism-based; conditions: in vivo, 672 h
MIA PaCa-2 [10] = experiment: Antitumor activity against human MIA PaCa-2 cells xenografted in BALB/c/Nu/Nu mouse assessed as tumor volume at 60 mg/kg, ip administered 5 times a week for 4 weeks and measured on day 32 (reference value: 1417 mm3); type: functional; conditions: time 32 day

Row | Compound | PC50 (MIA PaCa-2 [1]) [µM] | PC50 (PANC-1 [2]) [µM] | Selectivity Index [3] | Selectivity Index [4] | IC50 (MIA PaCa-2 [5]) [µM] | IC50 (PANC-1 [6]) [µM] | Activity (MIA PaCa-2 [7]) [mg] | Activity (MIA PaCa-2 [8]) | Activity [9] | Activity (MIA PaCa-2 [10]) [mm3]
1 | COc1cc(O)c(C(=O)[C@H]2CC=C(CCC=C(C)C)C[C@@H]2c2cc(F)cc(F)c2)c(O)c1 | 0.79 | 0.73 | 18.6 | 22.6 | 17.9 | 13.5 | – | – | – | –
2 | COc1cc(O)c(C(=O)[C@H]2CC=C(CCC=C(C)C)C[C@@H]2c2ccccc2)c(O)c1 | 2.76 | 0.55 | 46.3 | 22.3 | 61.4 | 25.3 | – | – | – | –
3 | COc1cccc(O)c1C(=O)[C@H]1CC=C(CCC=C(C)C)C[C@@H]1c1ccccc1 | 31.8 | 3.3 | 10.3 | – | > 100 | 33.9 | – | – | – | –
4 | CC(C)=CCCC1=CC[C@H](C(=O)c2c(O)cccc2O)[C@@H](c2cc(F)ccc2F)C1 (relative stereo) | 0.77 | 0.53 | 21.1 | 26.9 | 20.8 | 11.2 | – | – | – | –
5 | CC(C)=CCCC1=CC[C@H](C(=O)c2c(O)cccc2O)[C@@H](c2ccc(F)cc2F)C1 (relative stereo) | 0.34 | 0.27 | 26.1 | 32.6 | 11.1 | 7.18 | – | – | – | –
6 | COc1cc(O)c(C(=O)[C@H]2CC=C(CCC=C(C)C)C[C@@H]2c2cccc(F)c2F)c(O)c1 (relative stereo) | 1.01 | 0.64 | 38 | 33.4 | 33.8 | 24.4 | – | – | – | –
7 | CC(C)=CCCC1=CC[C@H](C(=O)c2c(O)cccc2O)[C@@H](c2ccccc2F)C1 (relative stereo) | 0.84 | 0.47 | 29.5 | 29.6 | 25 | 13.8 | – | – | – | –
8 | COc1cc(O)c(C(=O)[C@H]2CC=C(CCC=C(C)C)C[C@@H]2c2ccc(C)cc2)c(O)c1 (relative stereo) | 3.65 | 0.56 | – | 25.5 | 93.3 | > 100 | – | – | – | –
9 | CC(C)=CCCC1=CC[C@H](C(=O)c2c(O)cccc2O)[C@@H](c2ccc(F)c(F)c2)C1 (relative stereo) | 0.68 | 0.33 | 33.5 | 33.8 | 23.1 | 11 | – | – | – | –
10 | COc1cc(O)c(C(=O)[C@H]2CC=C(CCC=C(C)C)C[C@@H]2c2c(F)cccc2F)c(O)c1 (relative stereo) | 1.54 | 1.49 | 13 | 17 | 26.3 | 19.4 | – | – | – | –
11 | COc1cccc(OC)c1C(=O)[C@H]1CC=C(CCC=C(C)C)C[C@@H]1c1ccccc1 (relative stereo) | 13.6 | 1.66 | 24.1 | – | > 100 | 40 | – | – | – | –
12 | CC(C)=CCCC1=CC[C@H](C(=O)c2c(O)cccc2O)[C@@H](c2cccc(Cl)c2)C1 (relative stereo) | 1.09 | 0.85 | 17.4 | 26.8 | 29.1 | 14.8 | – | – | – | –
13 | COc1cc(O)c(C(=O)[C@H]2CC=C(CCC=C(C)C)C[C@@H]2c2cc(F)ccc2F)c(O)c1 (relative stereo) | 0.81 | 0.5 | 34.4 | 32.7 | 26.6 | 17.1 | – | – | – | –
14 | CC(C)=CCCC1=CC[C@H](C(=O)c2c(O)cccc2O)[C@@H](c2ccc(Cl)cc2Cl)C1 (relative stereo) | 0.78 | 0.43 | 23.5 | 28.6 | 22.2 | 10 | – | – | – | –
15 | COc1cc(O)c(C(=O)[C@H]2CC=C(CCC=C(C)C)C[C@@H]2c2ccc(F)cc2F)c(O)c1 (relative stereo) | 0.63 | 0.97 | 21.6 | 32 | 20.2 | 21 | – | – | – | –
16 | COc1ccc([C@H]2CC(CCC=C(C)C)=CC[C@@H]2C(=O)c2c(O)cccc2O)cc1 (relative stereo) | 4.73 | 1.08 | 52.8 | – | > 100 | 56.7 | – | – | – | –

Row | Compound | PC50 (MIA PaCa-2 [1]) [µM] | PC50 (PANC-1 [2]) [µM] | Selectivity Index [3] | Selectivity Index [4] | IC50 (MIA PaCa-2 [5]) [µM] | IC50 (PANC-1 [6]) [µM] | Activity (MIA PaCa-2 [7]) [mg] | Activity (MIA PaCa-2 [8]) | Activity [9] | Activity (MIA PaCa-2 [10]) [mm3]
17 | COc1cc(O)c(C(=O)[C@H]2CC=C(CCC=C(C)C)C[C@@H]2c2cccc(F)c2)c(O)c1 (relative stereo) | 1.21 | 1.16 | 25.6 | 32.9 | 39.9 | 29.6 | – | – | – | –
18 | CC(C)=CCCC1=CC[C@H](C(=O)c2c(O)cccc2O)[C@@H](c2cc(F)cc(F)c2)C1 (relative stereo) | 0.75 | 0.33 | 31.6 | 26.2 | 19.7 | 10.5 | – | – | – | –
19 | CC(C)=CCCC1=CC[C@H](C(=O)c2c(O)cccc2O)[C@@H](c2ccccc2Cl)C1 (relative stereo) | 1.08 | 0.69 | 22.2 | 26.7 | 29 | 15.4 | – | – | – | –
20 | COc1cc(O)c(C(=O)[C@H]2CC=C(CCC=C(C)C)C[C@@H]2c2ccc(Cl)cc2)c(O)c1 (relative stereo) | 3.02 | 0.41 | 94.5 | 23.8 | 71.9 | 39.1 | – | – | – | –
21 | CC(C)=CCCC1=CC[C@H](C(=O)c2c(O)cccc2O)[C@@H](c2ccc(Cl)cc2)C1 (relative stereo) | 1.3 | 0.68 | 126.8 | 25 | 32.6 | 86 | – | – | – | –
22 | COc1cc(O)c(C(=O)[C@H]2CC=C(CCC=C(C)C)C[C@@H]2c2ccc(F)c(F)c2)c(O)c1 (relative stereo) | 0.69 | 0.54 | 28.5 | 39.3 | 27.1 | 15.5 | – | – | – | –
23 | CC(C)=CCCC1=CC[C@H](C(=O)c2c(O)cccc2O)[C@@H](c2cccc(F)c2)C1 (relative stereo) | 1.23 | 1.43 | 11.2 | 25.1 | 30.8 | 16 | – | – | – | –
24 | COc1cc(O)c(C(=O)[C@H]2CC=C(CCC=C(C)C)C[C@@H]2c2ccc(F)cc2)c(O)c1 (relative stereo) | 1.01 | 0.39 | – | – | > 100 | > 100 | – | – | – | –
25 | CC(C)=CCCC1=CC[C@H](C(=O)c2c(O)cccc2O)[C@@H](c2ccc(F)cc2)C1 (relative stereo) | 0.89 | 0.37 | – | 38.6 | 34.4 | > 100 | – | – | – | –
26 | COc1cc(O)c(C(=O)[C@H]2CC=C(CCC=C(C)C)C[C@@H]2c2ccccc2F)c(O)c1 (relative stereo) | 0.85 | 0.72 | 39.3 | 39.6 | 33.7 | 28.5 | – | – | – | –
27 | CC(C)=CCCC1=CC[C@H](C(=O)c2c(O)cccc2O)[C@@H](c2cccc(Cl)c2Cl)C1 (relative stereo) | 0.62 | 0.45 | 23.5 | 32.9 | 20.3 | 10.5 | – | – | – | –
28 | COc1ccc([C@H]2CC(CCC=C(C)C)=CC[C@@H]2C(=O)c2c(O)cc(OC)cc2O)cc1 (relative stereo) | 1.93 | 0.45 | 110 | 52.9 | 102 | 50 | – | – | – | –
29 | CC(C)=CCCC1=CC[C@H](C(=O)c2c(O)cccc2O)[C@@H](c2ccccc2)C1 (relative stereo) | 1.79 | 0.4 | 117 | 32.5 | 58.2 | 47.2 | – | – | – | –
30 | COc1ccc(C(=O)[C@H]2CC=C(CCC=C(C)C)C[C@@H]2c2ccccc2)c(O)c1 (relative stereo) | 59.3 | 7.32 | 3.3 | – | > 100 | 24.2 | – | – | – | –
31 | CC(C)=CCCC1=CC[C@H](C(=O)c2c(O)cccc2O)[C@@H](c2c(F)cccc2F)C1 (single isomer, unassigned) | 1.52 | 1.34 | 16.1 | 18.9 | 28.7 | 21.6 | – | – | – | –
32 | Nc1ccn([C@@H]2O[C@H](CO)[C@@H](O)C2(F)F)c(=O)n1 [GEMCITABINE] | – | – | – | – | – | – | 227 | Active | Non-Toxic | 632
